Data taken from the NIST ThermoML archive (doi:10.1016/j.jct.2015.03.001).

Columns and labels:
[1] = refractive index (Na D-line) (dimensionless); xn = mol fraction of the nth substance listed; conditions: 99 kPa, Liquid, Abbe refractometer
[2] = relative permittivity at various frequencies (dimensionless); xn = mol fraction of the nth substance listed; conditions: 99 kPa, Liquid, Frequency=2 MHz, Parallel plate capacitor

CC(C)(C)Cl [2-chloro-2-methylpropane] + CCCCCC
Conditions | refractive index, 283.15 K | refractive index, 298.15 K | refractive index, 313.15 K | relative permittivity, 283.15 K | relative permittivity, 298.15 K | relative permittivity, 313.15 K
[1], x2 = 0 | 1.39115 | 1.38225 | 1.37312 | – | – | –
[1], x2 = 0.048 | 1.39005 | 1.38118 | 1.37209 | – | – | –
[1], x2 = 0.0978 | 1.38908 | 1.38022 | 1.37118 | – | – | –
[1], x2 = 0.1998 | 1.38741 | 1.3786 | 1.36961 | – | – | –
[1], x2 = 0.3018 | 1.38592 | 1.37722 | 1.36829 | – | – | –
[1], x2 = 0.405 | 1.38463 | 1.37598 | 1.36716 | – | – | –
[1], x2 = 0.5059 | 1.38354 | 1.37491 | 1.36616 | – | – | –
[1], x2 = 0.6043 | 1.38258 | 1.37407 | 1.3654 | – | – | –
[1], x2 = 0.7077 | 1.38181 | 1.37335 | 1.36477 | – | – | –
[1], x2 = 0.806 | 1.38122 | 1.37282 | 1.36433 | – | – | –
[1], x2 = 0.9095 | 1.38081 | 1.37249 | 1.36409 | – | – | –
[1], x2 = 0.95 | 1.38066 | 1.37236 | 1.36401 | – | – | –
[2], x2 = 0 | – | – | – | 10.429 | 9.67 | 8.952
[2], x2 = 0.0467 | – | – | – | 9.841 | 9.132 | 8.468
[2], x2 = 0.099 | – | – | – | 9.191 | 8.543 | 7.946
[2], x2 = 0.2084 | – | – | – | 7.892 | 7.37 | 6.883
[2], x2 = 0.2972 | – | – | – | 6.892 | 6.468 | 6.073
[2], x2 = 0.399 | – | – | – | 5.897 | 5.552 | 5.239
[2], x2 = 0.4982 | – | – | – | 5.016 | 4.749 | 4.514
[2], x2 = 0.6015 | – | – | – | 4.212 | 4.01 | 3.842
[2], x2 = 0.7009 | – | – | – | 3.543 | 3.398 | 3.283
[2], x2 = 0.8046 | – | – | – | 2.928 | 2.833 | 2.749
[2], x2 = 0.8999 | – | – | – | 2.417 | 2.362 | 2.308
[2], x2 = 0.9502 | – | – | – | 2.149 | 2.116 | 2.08

CC(C)(C)Cl [2-chloro-2-methylpropane] + CCCCCCC
Conditions | refractive index, 283.15 K | refractive index, 298.15 K | refractive index, 313.15 K | relative permittivity, 283.15 K | relative permittivity, 298.15 K | relative permittivity, 313.15 K
[1], x2 = 0 | 1.39115 | 1.38225 | 1.37312 | – | – | –
[1], x2 = 0.0511 | 1.39054 | 1.38172 | 1.37267 | – | – | –
[1], x2 = 0.0962 | 1.39025 | 1.38149 | 1.37249 | – | – | –
[1], x2 = 0.1985 | 1.38996 | 1.3813 | 1.37238 | – | – | –
[1], x2 = 0.2955 | 1.38988 | 1.38132 | 1.37254 | – | – | –
[1], x2 = 0.3985 | 1.39001 | 1.38159 | 1.37294 | – | – | –
[1], x2 = 0.4985 | 1.39024 | 1.38196 | 1.37347 | – | – | –
[1], x2 = 0.5996 | 1.39059 | 1.38244 | 1.37414 | – | – | –
[1], x2 = 0.7039 | 1.39105 | 1.38306 | 1.37492 | – | – | –
[1], x2 = 0.8032 | 1.39164 | 1.38375 | 1.37573 | – | – | –
[1], x2 = 0.9039 | 1.39225 | 1.38447 | 1.37653 | – | – | –
[1], x2 = 0.9618 | 1.39267 | 1.38492 | 1.37703 | – | – | –
[2], x2 = 0 | – | – | – | 10.429 | 9.67 | 8.952
[2], x2 = 0.0506 | – | – | – | 9.787 | 9.1 | 8.449
[2], x2 = 0.1035 | – | – | – | 9.109 | 8.485 | 7.907
[2], x2 = 0.2006 | – | – | – | 7.895 | 7.373 | 6.892
[2], x2 = 0.3012 | – | – | – | 6.721 | 6.293 | 5.932
[2], x2 = 0.3976 | – | – | – | 5.754 | 5.41 | 5.118
[2], x2 = 0.504 | – | – | – | 4.827 | 4.566 | 4.34
[2], x2 = 0.6015 | – | – | – | 4.103 | 3.914 | 3.747
[2], x2 = 0.6988 | – | – | – | 3.472 | 3.341 | 3.226
[2], x2 = 0.8014 | – | – | – | 2.905 | 2.819 | 2.749
[2], x2 = 0.9027 | – | – | – | 2.407 | 2.359 | 2.322
[2], x2 = 0.9444 | – | – | – | 2.209 | 2.173 | 2.144

CCC(C)Cl (stereo not drawn) [2-chlorobutane] + CCCCCC
Conditions | refractive index, 283.15 K | refractive index, 298.15 K | refractive index, 313.15 K | relative permittivity, 283.15 K | relative permittivity, 298.15 K | relative permittivity, 313.15 K
[1], x2 = 0 | 1.40226 | 1.39404 | 1.38562 | – | – | –
[1], x2 = 0.0471 | 1.40083 | 1.3926 | 1.38418 | – | – | –
[1], x2 = 0.0973 | 1.39939 | 1.39115 | 1.38274 | – | – | –
[1], x2 = 0.1986 | 1.39658 | 1.38833 | 1.37993 | – | – | –
[1], x2 = 0.293 | 1.39412 | 1.38584 | 1.37742 | – | – | –
[1], x2 = 0.4036 | 1.39142 | 1.38315 | 1.3747 | – | – | –
[1], x2 = 0.5099 | 1.38903 | 1.38071 | 1.37229 | – | – | –
[1], x2 = 0.6202 | 1.38673 | 1.37842 | 1.37002 | – | – | –
[1], x2 = 0.708 | 1.38508 | 1.37678 | 1.3684 | – | – | –
[1], x2 = 0.8068 | 1.38338 | 1.3751 | 1.36674 | – | – | –
[1], x2 = 0.908 | 1.38183 | 1.37356 | 1.36523 | – | – | –
[1], x2 = 0.9555 | 1.38113 | 1.37286 | 1.36454 | – | – | –
[2], x2 = 0 | – | – | – | 9.323 | 8.652 | 8.07
[2], x2 = 0.0536 | – | – | – | 8.752 | 8.128 | 7.593
[2], x2 = 0.0967 | – | – | – | 8.282 | 7.716 | 7.222
[2], x2 = 0.1993 | – | – | – | 7.216 | 6.76 | 6.345
[2], x2 = 0.2995 | – | – | – | 6.242 | 5.881 | 5.556
[2], x2 = 0.3993 | – | – | – | 5.389 | 5.093 | 4.827
[2], x2 = 0.4997 | – | – | – | 4.625 | 4.39 | 4.182
[2], x2 = 0.5974 | – | – | – | 3.963 | 3.786 | 3.626
[2], x2 = 0.7026 | – | – | – | 3.366 | 3.225 | 3.106
[2], x2 = 0.8044 | – | – | – | 2.811 | 2.72 | 2.642
[2], x2 = 0.9006 | – | – | – | 2.349 | 2.296 | 2.253
[2], x2 = 0.9472 | – | – | – | 2.137 | 2.105 | 2.07

CCC(C)Cl (stereo not drawn) [2-chlorobutane] + CCCCCCC
Conditions | refractive index, 283.15 K | refractive index, 298.15 K | refractive index, 313.15 K | relative permittivity, 283.15 K | relative permittivity, 298.15 K | relative permittivity, 313.15 K
[1], x2 = 0 | 1.40226 | 1.39404 | 1.38562 | – | – | –
[1], x2 = 0.0483 | 1.40141 | 1.39319 | 1.3848 | – | – | –
[1], x2 = 0.1024 | 1.40056 | 1.39238 | 1.38401 | – | – | –
[1], x2 = 0.2021 | 1.39912 | 1.391 | 1.38268 | – | – | –
[1], x2 = 0.303 | 1.39778 | 1.3897 | 1.38144 | – | – | –
[1], x2 = 0.4031 | 1.3966 | 1.38859 | 1.38038 | – | – | –
[1], x2 = 0.5066 | 1.39562 | 1.38765 | 1.37951 | – | – | –
[1], x2 = 0.5998 | 1.39489 | 1.38699 | 1.3789 | – | – | –
[1], x2 = 0.7051 | 1.39429 | 1.38642 | 1.37841 | – | – | –
[1], x2 = 0.8055 | 1.39382 | 1.38603 | 1.37807 | – | – | –
[1], x2 = 0.9123 | 1.39337 | 1.38563 | 1.37773 | – | – | –
[1], x2 = 0.9433 | 1.39322 | 1.38549 | 1.37761 | – | – | –
[2], x2 = 0 | – | – | – | 9.323 | 8.652 | 8.07
[2], x2 = 0.0498 | – | – | – | 8.838 | 8.22 | 7.684
[2], x2 = 0.101 | – | – | – | 8.296 | 7.73 | 7.247
[2], x2 = 0.1985 | – | – | – | 7.191 | 6.75 | 6.373
[2], x2 = 0.3008 | – | – | – | 6.131 | 5.792 | 5.51
[2], x2 = 0.3994 | – | – | – | 5.252 | 5 | 4.774
[2], x2 = 0.503 | – | – | – | 4.471 | 4.283 | 4.1
[2], x2 = 0.6009 | – | – | – | 3.84 | 3.698 | 3.56
[2], x2 = 0.7053 | – | – | – | 3.268 | 3.165 | 3.063
[2], x2 = 0.8026 | – | – | – | 2.79 | 2.731 | 2.659
[2], x2 = 0.9027 | – | – | – | 2.352 | 2.309 | 2.276
[2], x2 = 0.9463 | – | – | – | 2.164 | 2.133 | 2.108
